Measured values taken from the NIST ThermoML archive (doi:10.1021/je060355j).

Assays:
[1] = excess molar enthalpy (molar enthalpy of mixing); xn = mol fraction of the nth substance listed; conditions: 101.32 kPa, Liquid
[2] = xn = mol fraction of the nth substance listed; conditions: 101.32 kPa, Liquid

CCCCOC=O [butyl methanoate] + CCCCCC
Conditions | excess molar enthalpy [kcal/mol] | mass density [kg/m3]
[1], 291.15 K, x1 = 0.0865 | 0.0769 | –
[1], 291.15 K, x1 = 0.1588 | 0.134 | –
[1], 291.15 K, x1 = 0.2303 | 0.183 | –
[1], 291.15 K, x1 = 0.2973 | 0.216 | –
[1], 291.15 K, x1 = 0.3551 | 0.237 | –
[1], 291.15 K, x1 = 0.4081 | 0.248 | –
[1], 291.15 K, x1 = 0.454 | 0.253 | –
[1], 291.15 K, x1 = 0.5114 | 0.251 | –
[1], 291.15 K, x1 = 0.5606 | 0.243 | –
[1], 291.15 K, x1 = 0.6177 | 0.228 | –
[1], 291.15 K, x1 = 0.6775 | 0.205 | –
[1], 291.15 K, x1 = 0.7406 | 0.176 | –
[1], 291.15 K, x1 = 0.8067 | 0.14 | –
[1], 291.15 K, x1 = 0.873 | 0.0959 | –
[1], 291.15 K, x1 = 0.94 | 0.0509 | –
[1], 318.15 K, x1 = 0.0808 | 0.105 | –
[1], 318.15 K, x1 = 0.1626 | 0.168 | –
[1], 318.15 K, x1 = 0.2415 | 0.217 | –
[1], 318.15 K, x1 = 0.311 | 0.248 | –
[1], 318.15 K, x1 = 0.3823 | 0.268 | –
[1], 318.15 K, x1 = 0.4464 | 0.275 | –
[1], 318.15 K, x1 = 0.4882 | 0.274 | –
[1], 318.15 K, x1 = 0.5104 | 0.275 | –
[1], 318.15 K, x1 = 0.5661 | 0.266 | –
[1], 318.15 K, x1 = 0.63 | 0.25 | –
[1], 318.15 K, x1 = 0.7075 | 0.219 | –
[1], 318.15 K, x1 = 0.7904 | 0.175 | –
[1], 318.15 K, x1 = 0.868 | 0.121 | –
[1], 318.15 K, x1 = 0.9412 | 0.0645 | –
[2], 291.15 K, x1 = 0.0445 | – | 669.6
[2], 291.15 K, x1 = 0.09 | – | 678.6
[2], 291.15 K, x1 = 0.1461 | – | 689.8
[2], 291.15 K, x1 = 0.1928 | – | 699.5
[2], 291.15 K, x1 = 0.249 | – | 711.4
[2], 291.15 K, x1 = 0.3018 | – | 722.7
[2], 291.15 K, x1 = 0.4025 | – | 745.2
[2], 291.15 K, x1 = 0.5021 | – | 768.3
[2], 291.15 K, x1 = 0.5957 | – | 790.7
[2], 291.15 K, x1 = 0.6963 | – | 815.7
[2], 291.15 K, x1 = 0.7541 | – | 830.4
[2], 291.15 K, x1 = 0.802 | – | 842.7
[2], 291.15 K, x1 = 0.8532 | – | 856.1
[2], 291.15 K, x1 = 0.8987 | – | 868.2
[2], 291.15 K, x1 = 0.9575 | – | 884.3
[2], 291.15 K, x1 = 1 | – | 896
[2], 298.15 K, x1 = 0.0729 | – | 669.39
[2], 298.15 K, x1 = 0.1321 | – | 681.03
[2], 298.15 K, x1 = 0.1967 | – | 694.2
[2], 298.15 K, x1 = 0.2658 | – | 708.76
[2], 298.15 K, x1 = 0.336 | – | 723.94
[2], 298.15 K, x1 = 0.3698 | – | 731.4
[2], 298.15 K, x1 = 0.4886 | – | 758.31
[2], 298.15 K, x1 = 0.5876 | – | 781.81
[2], 298.15 K, x1 = 0.6855 | – | 805.81
[2], 298.15 K, x1 = 0.7677 | – | 826.55
[2], 298.15 K, x1 = 0.8136 | – | 838.26
[2], 298.15 K, x1 = 0.8574 | – | 849.77
[2], 298.15 K, x1 = 0.8986 | – | 860.63
[2], 298.15 K, x1 = 0.9227 | – | 867.09
[2], 298.15 K, x1 = 0.9714 | – | 880.08
[2], 298.15 K, x1 = 1 | – | 888.66
[2], 308.15 K, x1 = 0.047 | – | 654.6
[2], 308.15 K, x1 = 0.1095 | – | 666.7
[2], 308.15 K, x1 = 0.1485 | – | 674.6
[2], 308.15 K, x1 = 0.2005 | – | 685.2
[2], 308.15 K, x1 = 0.2579 | – | 697.2
[2], 308.15 K, x1 = 0.2981 | – | 705.7
[2], 308.15 K, x1 = 0.4033 | – | 728.8
[2], 308.15 K, x1 = 0.5098 | – | 753.1
[2], 308.15 K, x1 = 0.6081 | – | 776.4
[2], 308.15 K, x1 = 0.7112 | – | 801.8
[2], 308.15 K, x1 = 0.7576 | – | 813.5
[2], 308.15 K, x1 = 0.8073 | – | 826.3
[2], 308.15 K, x1 = 0.8511 | – | 837.7
[2], 308.15 K, x1 = 0.9081 | – | 852.9
[2], 308.15 K, x1 = 0.9598 | – | 867.3
[2], 308.15 K, x1 = 1 | – | 878.24
[2], 318.15 K, x1 = 0.0493 | – | 645.6
[2], 318.15 K, x1 = 0.0857 | – | 652.7
[2], 318.15 K, x1 = 0.1192 | – | 659.1
[2], 318.15 K, x1 = 0.1589 | – | 666.9
[2], 318.15 K, x1 = 0.1975 | – | 674.7
[2], 318.15 K, x1 = 0.2452 | – | 684.5
[2], 318.15 K, x1 = 0.3006 | – | 696.2
[2], 318.15 K, x1 = 0.4015 | – | 718
[2], 318.15 K, x1 = 0.495 | – | 739.2
[2], 318.15 K, x1 = 0.5929 | – | 762.2
[2], 318.15 K, x1 = 0.705 | – | 789.5
[2], 318.15 K, x1 = 0.746 | – | 799.7
[2], 318.15 K, x1 = 0.8134 | – | 817.05
[2], 318.15 K, x1 = 0.9067 | – | 841.5
[2], 318.15 K, x1 = 0.9647 | – | 857.1
[2], 318.15 K, x1 = 1 | – | 867.21
